# Measured values taken from patent US20220218832A1, “POLYMER DRUG” (BIODYNAMIC RESEARCH FOUNDATION, priority 2019, published 2022).
# What was measured:
# [1] = tested on: mouse colon cancer cells (C26); assay: In vitro cytotoxicity, MTT, mouse colon cancer cells C26 (Test Example 3); assay type: cell-based; conditions: ordinary medium containing 0.1% glucose
# Method: These C26 cells subcultured intraperitoneally in mice were washed with a MEM medium (centrifugation, 1,500 rpm) and then adjusted the number of cells to 10^5/ml. […] Firstly, the above cells were cultured at a normal oxygen partial pressure for 24 to 30 hours, and then the culture medium [Petri dish, 96 wells] was transferred to a microaerobic conditions, which was made by adding a commercially available oxygen absorber to an anaerobic culture chamber, i.e., a hypoxic agent (oxygen absorber), AnaeroPack—Micro aero generator manufactured by Mitsubishi Gas Chemical Company, Inc., Tokyo, was added into an anaerobic culture chamber to be a microaerobic (hypoxic) oxygen partial pressure (6 to 9%). The sealed chamber used in this test was a medium square jar (3.5 L) manufactured by Sugiyama-Gen Co., Ltd., Tokyo. In this state, the reagents to be examined were added to each medium at a predetermined concentration, and further cultured for 36 hours. After that, the number of living cells was measured by the above MTT method.
# [2] = pH of lyophilized product dissolved in distilled water; assay type: physicochemical
# [3] = Surface charge (Zeta potential); assay type: physicochemical; conditions: deionized water, 20 mg/ml
# [4] = tested on: HeLa cells; assay: In vitro cytotoxicity under normoxic and hypoxic partial pressures for 48 hours, HeLa cells (Test Example 4); assay type: cell-based; conditions: especially under low oxygen partial pressures
# Method: (§1) Colon cancer C26 and HeLa cells (1×10^4 cells/well) were seeded in Falcon 96-well culture plates and cultured overnight at 37° C. in Eagle MEM containing 10% FBS under normoxic partial pressure (5% CO2, 95% air) and hypoxic partial pressure (using a hypoxic chamber, pO2 6-8%). […] Finally, cell viability was analyzed by MTT assay.
# (§2) C26 and HeLa cells were also cultured as described above (FIGS. 7A and 7B) and treated with glucosamine (G) and SMA-glucosamine (SG). Finally, cell viability was measured by MTT assay.
# [5] = tested on: Colon cancer C26 cells; assay: In vitro cytotoxicity under normoxic and hypoxic partial pressures for 48 hours, C26 cells (Test Example 4); assay type: cell-based, mouse; conditions: especially under low oxygen partial pressures
# Method: as §1, §2
# [6] = Solubility of lyophilized product in distilled water; assay type: physicochemical; conditions: attempted 10 mg/ml solution
# [7] = Particle size by dynamic light scattering; assay type: physicochemical; conditions: 0.1 M tris-HCl buffer (pH 8.2), 15 mg/ml, 25° C.
# Method: Then, each solution was measured at 25° C. by a light scattering apparatus, Model ELSZ⋅2000ZS manufactured by Otsuka Electronics (Photal Inc., Osaka).
# [8] = tested on: Staphylococcus aureus
# Method: (§3) Firstly, in a Falcon plastic plate with 96 wells, 0.1 ml of Mueller-Hinton medium was added to each well, followed by 10 μl of suspension of each bacterium (10^4/well).
# [9] = tested on: Escherichia coli (E. coli)
# Method: as §3
# [10] = tested on: HeLa cells; conditions: aerobic conditions, 24 hours drug treatment
# Method: The culture of cells was performed in an Eagle MEM medium supplied with 10% fetal calf serum at 37° C. in 95% air/5% CO2. […] After that, the medium was replaced with a fresh medium and the culture was performed for further 24 hours. Then, viable cells was measured by the MTT method.
# [11] = 24 hours, 37° C., boric acid equivalent
Compound,"Cytostatic action, rank order [1]",Intrinsic pH in solution of lyophilized product in distilled water [2],Surface charge (Zeta potential) [3] [mV],"Cytotoxicity (cell viability, MTT) [4]","Cytotoxicity (cell viability, MTT) [5]",Solubility in distilled water [6],Average particle size (dynamic light scattering method) in diameter [7] [nm],Antibacterial activity compared with boric acid [8],"Concentration of boric acid at which antibacterial activity was shown [8, 11]",Antibacterial activity under more anaerobic conditions ([8]; more anaerobic conditions),Antibacterial activity compared with boric acid [9],"Concentration of boric acid at which antibacterial activity was shown [9, 11]",Antibacterial activity under more anaerobic conditions ([9]; more anaerobic conditions),"Growth of cancer cells (cell viability, MTT) [10]"
SMA-glucosamine conjugate [SG],"strengthened in the order of (A) free glucosamine, (B) SG and (C) SGB",8.5,−27,very potent cytotoxicity,very potent cytotoxicity,poorly soluble,90 ± 3,–,–,–,–,–,–,–
SMA-glucosamine-boric acid complex [SGB],"strengthened in the order of (A) free glucosamine, (B) SG and (C) SGB",–,–,–,–,–,–,stronger antibacterial activity than boric acid,lower than 10 mg/ml,further increased,stronger antibacterial activity than boric acid,lower than 10 mg/ml,further increased,significantly suppressed
"N[C@H]1C(O)O[C@H](CO)[C@@H](O)[C@@H]1O (stereo partly shown) [glucosamine, reference compound]","strengthened in the order of (A) free glucosamine, (B) SG and (C) SGB",–,–,–,–,–,–,–,–,–,–,–,–,–
